Test results as given in US20240069001A1, “ADAPTIVE PERFUSION SYSTEMS AND METHODS FOR DRUG RELEASE TESTING” (The United States of America, as represented by the …, priority 2020, published 2024).

Key:
Format in all cases: physicochemical
[1] = Reverse-dialysis release/diffusion of pure difluprednate solution (USP 2 apparatus, 100 kD MWCO dialysis tubes); conditions: pH 7.4 phosphate buffer:ethanol 80:20, 34° C.
Method: Release of difluprednate from pure drug solution was studied using a reverse-dialysis setup, where drug was transferred from outside a dialysis device to the inside. As compared to a dialysis configuration, the reverse-dialysis configuration provides an advantage in terms of allowing for better control of dilution and maximum drug concentration gradient across oil/water interface to drive the drug release. Diffusion of difluprednate through dialysis membrane was determined in a USP 2 apparatus setup (Vision Elite 8, Teledyne Hanson Research, with mini-vessels 800) using commercially available dialysis tubes 808 (Float-A-Lyzer G2, 100 kD MWCO, regenerated cellulose, Spectrum Labs, CA, USA), as shown in FIG. 8A. Each dialysis tube 808 was cleaned with 1.0% w/v polysorbate-80 solution in deionized water and subsequently washed thoroughly with deionized water. Dialysis tubes 808, containing about 1 mL of the release media (i.e., 10 mM pH 7.4 phosphate buffer mixed with ethanol in the ratio of 80:20 v/v), were suspended inside the USP 2 mini-vessels 800. Agitation was controlled at 100 rpm and the temperature was maintained at 34° C. Using conduit 806, 1 mL of difluprednate solution (1 mg/mL in ethanol) was spiked directly into the vessel 800, which contained 200 mL release media 802, in order to achieve an initial drug concentration of 5 μg/mL.
(§1) Within dialysis tube 808, difluprednate concentration (e.g., drug that had diffused through the membrane filter of dialysis device 808) was monitored in real time using an in-situ fiber optic probe 804, in particular a fiber optic UV-Vis system (Pion μDiss Profiler™, Billerica, MA). The scanning frequency was once every minute for the first 6 hours, then it switched to once every 5 minutes for the next 18 hours. After first 24 hours, the scanning frequency was changed to once every 10 minutes for the next 40 hours. For the last 104 hours, the scanning frequency was once every 30 min. The total experimental time was 168 hours (7 days). Pure difluprednate solution diluted with release medium at the same concentration of 5 μg/mL was also monitored in parallel as a control to determine any possible change in drug concentration, e.g., due to degradation. Prior to the start of the experiment, UV signals were calibrated using various concentrations of difluprednate standard solutions (0.05, 0.10, 0.50, 1.00, 2.00, 3.00, 4.00, and 6.00 μg/mL). Zero Intercept Method (ZIM) analysis was performed to remove polysorbate-80 interference by using wavelength within the range of 271-274 nm (exact ZIM wavelength varied between probes). Ethanol was used as a co-solvent to prevent the precipitation of difluprednate in the release media.

[2] = Control: pure difluprednate solution diluted with release medium, monitored for degradation; conditions: control sample, at 24 hrs; 5 μg/mL in release medium; n=1
Method: as §1

[3] = Adaptive perfusion (AP) IVRT with 100 kD MWCO mPES hollow fiber filter; conditions: AP method
Description: The setup 1000 includes a fresh media reservoir 1002, a particulate filtering device 1004 attached to the fresh media tubing (to prevent particulate contamination), two peristaltic pumps (a first pump 1014 for the sample feed and a second pump 1006 for the fresh media), two additional reservoirs (a first reservoir 1008 for the retentate (also called the feed reservoir) and a second reservoir 1038 for the permeate (also called the permeate reservoir)), a pre-conditioned TFF filter (in particular, an HFF 1020, with first port 1022 and second port 1024 connected to a retentate volume and third port 1032 and fourth port 1040 connected to a permeate volume), a backpressure controlling valve 1028, a magnetic stirrer 1010, a stir plate 1012 for mixing the sample with the media, a pressure monitoring system with three pressure sensors (inlet sensor 1018, retentate sensor 1026, and permeate sensor 1034), a mass flow monitoring system (e.g., flow-meter 1036), a data acquisition system (e.g., computer with software), and a fluid circuit 1030 (e.g., tubing) for interconnecting the various components. HFF 1020 was a Spectrum MicroKros®, 100 kD MWCO, modified polyether sulfone (mPES) membrane, 20 cm^2 surface area (Repligen Corporation, CA, USA). An initial drug product sample of a particular concentration and/or volume was manually spiked into the first reservoir 1008 using conduit 1016.
Pure difluprednate solution and difluprednate polysorbate-80 micelles was evaluated using the setup 1000 of FIG. 10. For pure difluprednate solution, 200 μL of difluprednate solution (1 mg/mL in ethanol) was spiked (via conduit 1016) into 40 mL of release media (10 mM pH 7.4 phosphate buffer mixed with ethanol in the ratio of 80:20 v/v) in reservoir 1008 to reach an initial difluprednate concentration of 5 μg/mL. Ethanol was used as a co-solvent to prevent the precipitation of difluprednate in the media. Difluprednate concentrations in the retentate reservoir 1008 and permeate reservoir 1038 were determined in real time using an in-situ fiber optic UV-Vis system (Pion μDiss Profiler™, Billerica, MA). ZIM analysis was performed to remove polysorbate-80 interference by using wavelength within the range of 271-274 nm (exact ZIM wavelength varied between probes). For difluprednate polysorbate-80 micelles, 1 mL of difluprednate polysorbate-80 micelle solution (100 μg/mL in 3.6% w/v polysorbate-80) was spiked (via conduit 1016) into 40 mL of the release media (10 mM pH 7.4 phosphate buffer) in reservoir 1008 to obtain an initial difluprednate concentration of 2.5 μg/mL. Aliquots of retentate and permeate were collected periodically from the retentate reservoir 1008 and from the permeate tubing (between third port 1032 and permeate reservoir 1038), respectively, and subjected to UPLC analysis to determine difluprednate concentration. Appropriate dilution was performed for the retentate aliquots by using acetonitrile prior to UPLC analysis. The study was conducted at ambient room temperature (i.e., 23.5±1.5° C.).
Several TFF hollow fiber filter modules having different MWCO of 30 kD, 100 kD, 300 kD and 500 kD (Spectrum MicroKros®, modified polyether sulfone (mPES) membrane, 20 cm^2 surface area, Repligen Corporation, CA, USA) were screened initially to select an optimal MWCO for the TFF filter for performing the in vitro release studies. 100 kD MWCO was eventually selected considering the range of globule sizes to be evaluated for the nanoemulsions. 200 μL of nanoemulsion was spiked (via conduit 1016) directly into 40 mL of media (10 mM pH 7.4 phosphate buffer) in reservoir 1008 to provide an initial concentration of 2.5 μg/mL for difluprednate. Aliquots of retentate and permeate were collected periodically from the retentate reservoir 1008 and from the permeate tubing (between outlet 1031 and 1038), respectively, and subjected to UPLC analysis to determine difluprednate concentration. […]

CCCC(=O)O[C@]1(C(=O)COC(C)=O)CC[C@H]2[C@@H]3C[C@H](F)C4=CC(=O)C=C[C@]4(C)[C@@]3(F)[C@@H](O)C[C@@]21C [Pure drug (DFP) solution, Difluprednate]
drug diffused at plateau ([1]; 100 kD MWCO): about 75%
time for difluprednate concentration to reach plateau ([1]; 100 kD MWCO): ~8 h
time for 50% of difluprednate to diffuse across the dialysis membrane ([1]; 100 kD MWCO, 100 rpm, 5 μg/mL): more than 3 hours
time after which decrease in difluprednate concentration was observed (degradation in alkaline media) ([1]; inside dialysis tube): about 10 hours
pure drug remaining in the bulk media [2]: 85%
time to reach 90% of drug release ([3]; permeate (FIG. 12A)): less than 15 minutes
Permeate Maximum Drug Release ([3]; Mean ± SD, n = 3): 93.7 ± 5.5%
Permeate t50 ([3]; Mean ± SD, n = 3): 5.3 ± 0.6 min
Permeate k* (first-order rate constant) ([3]; Q = 100*(1 − e^−k*t), Mean ± SD, n = 3, room temperature): 0.146 ± 0.018 min⁻¹
Retentate k* (first-order rate constant) ([3]; Q = 100*e^−k*t, Mean ± SD, n = 3, room temperature): 0.211 ± 0.056 min⁻¹
difluprednate transferred across the membrane (into the permeate) ([3]; in less than 15 minutes): more than 90%
